Values of other authors, collected in patent EP0788741B1 (priority 1996, dated 1997).

Tested on: Australorbis Glabratus
Conditions: Public Health Report, Vol. 82, No. 9; cited from earlier work

| SMILES | concentration effective to kill Puerto Rican snails |
| --- | --- |
| CCCCCCCCCCCCCN(C)C.CCCCCCCCCCCCCN(C)C.O=C(O)C1C2CCC(O2)C1C(=O)O [di (N,N-dimethyltridecylamine) salt of Endothall] | 5 ppm |
| CCCCCCCCCCCCCN(C)C.O=C(O)C1C2CCC(O2)C1C(=O)O [mono (N,N-dimethyltridecylamine) salt of Endothall] | 10 ppm |
